Laboratory results from PMC5920559 (Journal of medicinal chemistry, 2017).
≈ marks a conversion by molar mass, not a printed value. Where two headings read alike, the source gives them in different places. Values belong to the compound of their own block, whether it stands above or below them. Peptide text beside a SMILES is read from it. * marks the point of attachment. Cbz = O=C(OCc1ccccc1)*

Columns and labels:
[1] = test system: LC3-I/II and p62 in HEK293 cells; assay: autophagy markers immunoblot; type: cell-based; settings: 8 h
[2] = test system: severe SMA mice (SMNΔ7); settings: severe SMA mice (SMNΔ7) printed for 5; cited from earlier work
[3] = biological target: SMN-luc fusion (UniProt P08659+Q16637); assay: SMN-luc protein stability with cycloheximide; type: cell-based; settings: with cycloheximide 10 µM, compound 10 µM
[4] = test system: SMN2-luc reporter cell line; assay: SMN2-luciferase; type: cell-based; settings: 24 h
[5] = test system: SMN-luciferase mRNA; settings: cited from earlier work
[6] = biological target: endogenous SMN protein in HEK293 cells (Homo sapiens, UniProt Q16637); assay: pulse-chase SMN protein half-life; type: cell-based; settings: 10 µM
Sequence of endogenous SMN protein in HEK293 cells (Q16637 whole entry): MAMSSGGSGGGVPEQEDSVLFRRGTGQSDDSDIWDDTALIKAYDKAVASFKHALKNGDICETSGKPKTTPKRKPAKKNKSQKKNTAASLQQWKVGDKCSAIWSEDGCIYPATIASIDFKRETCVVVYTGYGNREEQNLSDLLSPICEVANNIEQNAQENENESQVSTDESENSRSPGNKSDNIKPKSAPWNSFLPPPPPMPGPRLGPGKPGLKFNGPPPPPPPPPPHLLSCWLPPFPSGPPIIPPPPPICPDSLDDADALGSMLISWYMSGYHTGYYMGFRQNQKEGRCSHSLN

[7] = test system: human SMN protein in 3813T fibroblasts; settings: cited from earlier work
[8] = mouse pharmacokinetics; type: in vivo; settings: for Cmax: plasma, plasma Cmax
[9] = test system: renilla luciferase protein; assay: Renilla-luc protein stability with cycloheximide; settings: with cycloheximide 10 µM, compound 10 µM
[10] = test system: SMN-luciferase mRNA; assay: qRT-PCR of SMN-luciferase mRNA; type: cell-based; settings: 1, 10 µM, 24 h
[11] = test system: p53 and p21-Cip1 in HEK293 cells; assay: levels of short-lived proteins p53 and p21; type: cell-based; settings: alone or after cycloheximide
[12] = test system: MBP-HPV-16 E6 mediated degradation of p53; assay: HPV16 E6 mediated p53 in vitro degradation assay; type: biochemical; settings: preincubation of rabbit reticulocyte lysates, 30 min
[13] = biological target: hERG (Homo sapiens, UniProt Q12809); assay: hERG safety profiling; settings: 10 µM
Sequence of hERG (Q12809 whole entry): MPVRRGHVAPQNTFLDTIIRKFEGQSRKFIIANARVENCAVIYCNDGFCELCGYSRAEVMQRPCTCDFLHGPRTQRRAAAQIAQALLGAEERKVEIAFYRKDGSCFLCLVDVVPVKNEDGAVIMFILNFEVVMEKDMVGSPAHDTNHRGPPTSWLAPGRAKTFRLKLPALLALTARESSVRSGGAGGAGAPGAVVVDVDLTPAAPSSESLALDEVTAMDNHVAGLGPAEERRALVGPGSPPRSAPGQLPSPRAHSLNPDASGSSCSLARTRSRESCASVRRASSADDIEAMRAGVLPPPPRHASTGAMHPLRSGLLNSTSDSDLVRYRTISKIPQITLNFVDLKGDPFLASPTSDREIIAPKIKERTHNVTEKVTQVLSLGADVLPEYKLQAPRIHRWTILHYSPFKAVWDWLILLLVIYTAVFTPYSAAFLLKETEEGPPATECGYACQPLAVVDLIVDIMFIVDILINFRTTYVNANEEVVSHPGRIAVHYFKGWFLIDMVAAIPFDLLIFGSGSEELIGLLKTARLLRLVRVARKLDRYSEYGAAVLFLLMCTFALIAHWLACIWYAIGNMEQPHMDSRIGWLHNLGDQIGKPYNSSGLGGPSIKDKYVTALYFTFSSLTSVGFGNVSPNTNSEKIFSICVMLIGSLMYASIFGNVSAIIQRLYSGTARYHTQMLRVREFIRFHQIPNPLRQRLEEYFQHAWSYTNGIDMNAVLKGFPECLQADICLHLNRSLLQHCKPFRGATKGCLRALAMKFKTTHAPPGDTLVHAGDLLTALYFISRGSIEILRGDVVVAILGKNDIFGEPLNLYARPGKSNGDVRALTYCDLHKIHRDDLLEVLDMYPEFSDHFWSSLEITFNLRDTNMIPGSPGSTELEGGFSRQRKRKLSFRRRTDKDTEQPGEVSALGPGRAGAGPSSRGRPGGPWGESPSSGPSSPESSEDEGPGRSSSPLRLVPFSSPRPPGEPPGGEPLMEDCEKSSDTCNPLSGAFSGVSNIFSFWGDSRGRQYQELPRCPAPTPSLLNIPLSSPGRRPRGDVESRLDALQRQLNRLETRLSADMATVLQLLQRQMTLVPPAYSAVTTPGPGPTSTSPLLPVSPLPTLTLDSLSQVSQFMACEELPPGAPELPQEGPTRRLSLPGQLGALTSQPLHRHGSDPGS

[14] = plasma protein binding, human plasma; type: in vitro ADME
[15] = test system: 64 target broad panel (e.g., GPCRs and ion channels); assay: 64 target broad panel screen; settings: 10 µM
[16] = test system: polyubiquitinated proteins in HEK293 cells; assay: polyubiquitinated proteins immunoblot; type: cell-based; settings: for effect on basal level of polyubiquitinated proteins: 1 and 10 µM
[17] = test system: 58 kinase panel; assay: 58 kinase panel; type: biochemical; settings: 10 µM
[18] = plasma protein binding, mouse plasma; type: in vitro ADME
[19] = test system: SH5Y5Y cells; assay: cell viability; type: cell-based; settings: up to 100× its EC50, 48 h
[20] = test system: SV40 reporter cells; assay: SV40 promoter luciferase counterscreen; type: cell-based
[21] = kinetic solubility at pH 7.4; type: physicochemical; settings: aqueous medium (buffer not named)
[22] = test system: SMN2 reporter cells; assay: constant ratio combination experiment in SMN2 reporter cells; type: cell-based
[23] = acid stability in HCl; type: physicochemical; settings: 0.1 and 1 N HCL, 37 °C, each time point 1, 2, 4, 6, 24 h, LCMS
[24] = biological target: recombinant luciferase (Photinus pyralis, UniProt P08659); assay: recombinant luciferase activity; type: biochemical
Sequence of recombinant luciferase (P08659 whole entry): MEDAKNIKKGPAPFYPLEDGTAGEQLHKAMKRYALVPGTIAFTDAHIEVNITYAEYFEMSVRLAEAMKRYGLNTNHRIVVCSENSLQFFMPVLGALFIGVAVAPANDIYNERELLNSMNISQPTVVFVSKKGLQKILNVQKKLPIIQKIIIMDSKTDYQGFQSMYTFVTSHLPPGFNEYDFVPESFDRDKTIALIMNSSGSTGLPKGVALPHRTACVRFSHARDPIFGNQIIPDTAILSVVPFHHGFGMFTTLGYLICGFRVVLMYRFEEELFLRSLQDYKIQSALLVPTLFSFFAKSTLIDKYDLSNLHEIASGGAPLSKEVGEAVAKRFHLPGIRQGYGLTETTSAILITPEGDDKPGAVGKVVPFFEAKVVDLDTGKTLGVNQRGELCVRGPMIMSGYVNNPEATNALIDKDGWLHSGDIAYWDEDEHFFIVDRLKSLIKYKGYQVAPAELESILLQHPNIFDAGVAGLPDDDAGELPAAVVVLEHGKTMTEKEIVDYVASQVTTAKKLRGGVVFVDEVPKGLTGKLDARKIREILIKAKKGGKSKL

SMILES: CCN(CC)CCCC(C)Nc1ccnc2cc(Cl)ccc12 (stereo not drawn) [Chloroquine, reference compound]
- effect on p62 and LC-3 II protein levels [1]: increased

SMILES: CC(C)c1cc(C(=O)Nc2ccc(F)c(Cl)c2)no1 [Compound 4, N-(3-Chloro-4-fluorophenyl)-5-isopropylisoxazole-3-carboxamide]
- in vivo activity [2]: inactive
- stabilization of SMN-luc fusion [3]: stabilized
- EC50 [4]: 1800 nM
- effect on SMN mRNA expression and exon 7 inclusion [5]: did not alter SMN mRNA expression or exon 7 inclusion
- effect on SMN protein half-life [6]: increased
- SMN expression in SMA-derived fibroblast [7]: promoted increases

- brain Cmax ([8]; 20 mpk ip, 20 mg/kg): 6 ng/mL
- plasma Cmax ([8]; 20 mpk ip, 20 mg/kg): 3 ng/mL
- plasma and brain levels after 30 min ([8]; ip 20 mg/kg): below the levels of detection
SMILES: CC(C)c1cc(C(=O)Nc2ccccn2)no1 [Compound 4m, 5-Isopropyl-N-(pyridin-2-yl)isoxazole-3-carboxamide]

SMILES: COc1cc2c(c(OC)c1OC)C(c1cc(Br)ccc1F)CC(=O)N2 (stereo not drawn) [Compound 5, reference compound]
- in vivo activity [2]: increases SMN protein and the survival
- stabilization of SMN-luc fusion [3]: Neither
- stabilization of renilla luciferase protein [9]: Neither

SMILES: O=C(Nc1ncc(C2CCC2)s1)c1ccc(F)c(Cl)c1 [Compound 26, 3-Chloro-N-(5-cyclobutylthiazol-2-yl)-4-fluorobenzamide]
- Emax ([4]; read-out: % Activation): 100 ± 16%

SMILES: O=C(Nc1ncc(C2(O)CCC2)s1)c1ccc(F)c(Cl)c1 [Compound 27, 3-Chloro-4-fluoro-N-(5-(1-hydroxycyclobutyl)thiazol-2-yl)-benzamide]
- effect on SMN mRNA expression and exon 7 inclusion [10]: did not alter SMN mRNA expression or exon 7 inclusion
- effect on cellular levels of p53 and p21-Cip1 [11]: did not alter
- inhibition of MBP-HPV-16 E6 mediated degradation of p53 [12]: no inhibition
- stabilization of SMN-luc fusion [3]: stabilized
- inhibition of hERG activity [13]: < 50%
- free fraction in human plasma [14]: 3.5 % free
- inhibition of 64 other targets [15]: < 50%
- effect on basal level of polyubiquitinated proteins [16]: no effect
- inhibition in 58 kinase panel [17]: < 50%
- free fraction in mouse plasma [18]: 4.7 % free
- effect on viability of SH5Y5Y cells [19]: no effect
- Cmax ([8]; ip, 20 mg/kg, ip 20 mg/kg): 23 µM
- Cmax ([8]; po, 20 mg/kg, adult mice, orally 20 mg/kg): 0.9 µM
- effect on luc levels expressed from a minimal SV40 promoter [20]: minimal effects
- solubility [21]: ~10 µg/mL (≈ 30.6 µM)
- effect on p62 and LC-3 II protein levels [1]: did not alter
- SMN2-luc level on combined exposure with 4 ([22]; in combination with 4, 24 h): did not result in additive or above additive levels
- SMN2-luc level on combined exposure with 5 ([22]; in combination with transcriptional activator 5, 24 h): an activation above the theoretical additive was observed
- degradation in acid [23]: less than 5%
- effect on recombinant luciferase protein in vitro [24]: minimal effects

SMILES: CC(C)C[C@@H](C=O)NC(=O)[C@H](CC(C)C)NC(=O)[C@H](CC(C)C)NC(=O)OCc1ccccc1 [MG-132] (Cbz-Leu-Leu-Leu-aldehyde)
- effect on SMN protein half-life [6]: increased
- effect on basal level of polyubiquitinated proteins [16]: increased
- inhibition of cycloheximide-induced reduction of polyubiquitinated proteins ([16]; 2 h pretreatment then cycloheximide 10 µM): inhibited

SMILES: O=C(CCCCCCC(=O)Nc1ccccc1)NO [SAHA, suberoylanilide hydroxamic acid, reference compound]
- stabilization of SMN-luc fusion [3]: Neither
- stabilization of renilla luciferase protein [9]: Neither
